From publication PMC4005005 (ChemMedChem, 2014)
pIC50: −log10 of the molar value.

Molecular target: T1, G9a (Homo sapiens, UniProt Q96KQ7)
T1 sequence (Q96KQ7 2-1210): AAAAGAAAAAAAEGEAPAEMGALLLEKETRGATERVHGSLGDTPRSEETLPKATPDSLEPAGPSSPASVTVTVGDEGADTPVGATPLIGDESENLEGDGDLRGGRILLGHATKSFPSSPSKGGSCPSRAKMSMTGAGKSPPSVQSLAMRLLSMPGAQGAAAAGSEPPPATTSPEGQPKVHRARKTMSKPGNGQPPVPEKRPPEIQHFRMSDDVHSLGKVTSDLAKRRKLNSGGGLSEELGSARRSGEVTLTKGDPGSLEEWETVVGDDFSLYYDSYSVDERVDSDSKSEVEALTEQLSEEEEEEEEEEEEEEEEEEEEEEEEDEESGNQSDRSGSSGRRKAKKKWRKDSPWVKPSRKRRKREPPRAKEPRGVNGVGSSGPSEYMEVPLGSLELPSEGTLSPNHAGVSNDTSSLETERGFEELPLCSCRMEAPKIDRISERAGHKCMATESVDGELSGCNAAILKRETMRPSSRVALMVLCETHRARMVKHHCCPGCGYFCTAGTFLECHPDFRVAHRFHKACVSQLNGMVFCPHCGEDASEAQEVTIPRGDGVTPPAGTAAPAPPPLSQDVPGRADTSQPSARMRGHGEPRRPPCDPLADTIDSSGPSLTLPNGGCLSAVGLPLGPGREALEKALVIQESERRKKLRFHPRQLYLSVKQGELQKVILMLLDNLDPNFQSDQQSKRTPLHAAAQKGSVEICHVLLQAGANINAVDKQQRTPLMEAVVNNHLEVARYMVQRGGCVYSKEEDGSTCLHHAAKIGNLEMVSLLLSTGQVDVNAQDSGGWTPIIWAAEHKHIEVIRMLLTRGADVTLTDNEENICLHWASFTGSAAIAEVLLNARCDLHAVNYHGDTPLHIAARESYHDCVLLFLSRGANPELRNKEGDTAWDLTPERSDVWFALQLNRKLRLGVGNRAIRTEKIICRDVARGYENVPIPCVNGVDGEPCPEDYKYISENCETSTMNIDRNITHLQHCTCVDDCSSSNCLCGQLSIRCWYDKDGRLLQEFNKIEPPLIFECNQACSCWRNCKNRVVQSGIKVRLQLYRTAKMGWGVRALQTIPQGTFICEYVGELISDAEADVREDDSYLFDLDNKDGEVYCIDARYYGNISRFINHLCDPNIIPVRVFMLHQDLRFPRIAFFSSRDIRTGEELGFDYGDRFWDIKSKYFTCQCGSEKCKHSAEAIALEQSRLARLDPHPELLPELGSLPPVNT
Assay: scintillation proximity assay of 3H-methyl transfer to histone peptide
Assay type: biochemical

pIC50: > 8.60
SMILES: COc1cc2c(NC3CCN(CCCc4cn(CCOCCOCCOCCNC(=O)CCCC[C@H]5SC[C@H]6NC(=O)N[C@H]65)nn4)CC3)nc(C3CCCCC3)nc2cc1OCCCN1CCCC1 [compound 10, UNC0965]
